Test results taken from patent US20250041245A1, “ENDOXIFEN FOR TREATMENT OF CANCERS” (Atossa Therapeutics, Inc., priority 2021, published 2025).
Where “and” joins values, the source holds several entries; their conditions need not be identical. Equal entries are not always repeated. Entries after “also recorded” stand apart in the source; their conditions may differ.

How the values were obtained:
Type in all cases: cell-based, human
Set-up in all cases: key to Personalization Category: Personalization categories range from High, Good, Moderate, Low, to None; Personalization categories range from High, Good, Moderate, Low, to None; Personalization categories range from High, Good, Moderate, Low, to None; Personalization categories range from High, Good, Moderate, Low, to None; Personalization categories range from High, Good, Moderate, Low, to None; key to Sensitivity Category: Sensitivity categories range from High, Good, Moderate, Low, to None; Sensitivity categories range from High, Good, Moderate, Low, to None; Sensitivity categories range from High, Good, Moderate, Low, to None; Sensitivity categories range from High, Good, Moderate, Low, to None; Sensitivity categories range from High, Good, Moderate, Low, to None; AUC: unit not given beside the values
[1] = system: patient-derived tumor organoids (PDTOs), leiomyosarcoma; assay: Endoxifen screen in PDTOs: leiomyosarcoma; conditions: each line one patient sample
Protocol: (§1) This example describes screening endoxifen in patient-derived tumor organoids. Endoxifen was tested as a single agent on tumor organoids derived from patients diagnosed with various cancer types using a personalized cancer treatment screening assay (PARIS© Test, SEngine Precision Medicine). The screen utilized patient-derived tumor organoids (PDTOs) along with high-throughput drug screening and machine learning-guided data analysis to quantify the efficacy of endoxifen against samples derived from individual patients diagnosed with various cancer types. PDTOs are self-organizing, three-dimensional organoid structures that recapitulate structural, functional, and genomic aspects of in vivo organs. The PDTOs were grown in culture from patient tumor biopsy samples.
(§2) Fresh patient biopsy samples received following surgery were cleaned and purified. Immune cells (e.g., lymphocytes, blood cells), cancer-associated fibroblasts, and other non-tumor cells were removed to establish pure PDTOs for endoxifen testing. The tumor organoids were grown and expanded by supplying organ- and patient-specific growth factors and nutrients. The PDTOs were treated with increasing concentrations of endoxifen ranging from about 30 nM to about 10 μM, and the drug response was measured using a luminescence readout. A lower luminescence was indicative of a stronger drug response.
(§3) The results were analyzed using a “SEngine Precision Medicine” (SPM) scoring system to assess the sensitivity and personalization of each tumor organoid to endoxifen. The SPM score correlates with clinical outcomes, such that a higher SPM score for a specific PDTO-drug combination predicts a more favorable clinical outcome following treatment of the corresponding patient with the tested drug.
(§4) This example describes testing endoxifen efficacy against 17 distinct cancer types in patient-derived tumor organoids (PDTOs). Screening of PDTOs was performed as described in EXAMPLE 1. For each PDTO sample, the drug response was measured using a luminescent readout over a range of endoxifen concentrations. The drug response was evaluated based on the area under the fitted dose response curve (AUC) and the SPM scoring system. AUC values were normalized for each PDTO. Briefly, data points at each drug concentration were first normalized to a negative control, then a dose response drug curve was approximated using a four-parameter logistic model fitted to the normalized data points. The area under the curve was calculated from the normalized curve. Normalization allowed for comparison of AUC values between patient samples. The SPM scores were based on machine learning models that incorporate values for how well the drug kill patient cells (sensitivity metric), the relative drug responses of a patient to all other patients in a sample database (personalization metric), and knowledge of clinical outcomes for patients that had been evaluated with the personalized cancer screening assay (PARIS® Test, SEngine Precision Medicine).
(§5) The SPM scoring system evaluated whether a PDTO was unresponsive or responsive to endoxifen and the degree of drug response for PDTOs that were responsive to endoxifen. […] The sensitivity category was determined from the sensitivity metric and is a measure of overall cell death of a patient's cells in response to endoxifen at six concentrations. […]

[2] = system: patient-derived tumor organoids (PDTOs), rectal cancer; assay: Endoxifen screen in PDTOs: rectal cancer
Protocol: as §1, §2, §3, §4, §5

[3] = system: patient-derived tumor organoids (PDTOs), cholangiocarcinoma; assay: Endoxifen screen in PDTOs: cholangiocarcinoma; conditions: each line one patient sample; for IC50: four-parameter logistic fit
Protocol: as §1, §2, §3, §4
The SPM scoring system evaluated whether a PDTO was unresponsive or responsive to endoxifen and the degree of drug response for PDTOs that were responsive to endoxifen. The SPM scoring system generated metrics an SPM score, predictive of clinical outcome, overall drug response (response category), drug sensitivity (sensitivity category), and drug personalization (personalization category). SPM scores ranged from 1-15, corresponding to the following drug response categories: no response (SPM 1-8), low response (SPM 9), moderate response (SPM 10-11), good response (SPM 12-13), and exceptional response (SPM 14-15). […] Moderate to good drug responses (SPM 10-13) may indicate that a drug has clinical relevance, possibly in combination with other drugs. The sensitivity category was determined from the sensitivity metric and is a measure of overall cell death of a patient's cells in response to endoxifen at six concentrations. […]

[4] = normalized area under fitted dose response curve

## CC/C(=C(\c1ccc(O)cc1)c1ccc(OCCNC)cc1)c1ccccc1 [Endoxifen, 4-hydroxy-N-desmethyltamoxifen]
[1]
  Personalization Category: None
  Response Category: None (no response (SPM 1-8))
  Sensitivity Category: None
[1]; [4]
  AUC: 0.9719 and 1.0448 and 1.0001
[1]; score range 1-15
  SPM Score: 1
[2]; Homo sapiens, Patient 19, four-parameter logistic fit
  IC50: 3.9 µM
[2]; Patient 19
  Personalization Category: Low
  Sensitivity Category: Low
[2]; Patient 19, normalized area under fitted dose response curve
  AUC: 0.8614
[2]; Patient 19, score range 1-15
  SPM Score: 9
[3]; Homo sapiens
  IC50: 8.7 µM
[3]
  Personalization Category: None and Low
  Response Category: None (no response (SPM 1-8)); also recorded: Low (low response (SPM 9))
  Sensitivity Category: None and Low
  IC50: 9.19 µM
[3]; [4]
  AUC: 0.9497 and 0.9011 and 0.9669
[3]; score range 1-15
  SPM Score: 1 and 9 and 3
